Data as given in ChEMBL document CHEMBL1150091, “Cytotoxic compounds from a two-sponge association” (J Nat Prod, 1995).
Values after ≈ are worked out from the molar mass of the structure shown. Active and inactive are the calls of the source. No cut-off for these calls is given here.

Assays:
[1] = test system: Nucleic Acid; assay: Induction of strand scission activity in bacteriophage X174RF1 DNA infected in Escherichia coli; assay type: nucleic-acid assay; settings: unidentified phage
[2] = organism: Rattus norvegicus; assay: Inhibition of NADH dehydrogenase and oxidase activity of electron transport protein complex 1 in rat […] assessed as blockade of reduction-oxidation process; assay type: cell membranes
[3] = test system: Mus musculus; assay: (§1) Toxicity in ip dosed mouse; assay type: organism-based; settings: in vivo
[4] = test system: P388; assay: Cytotoxicity against mouse P388 cells; assay type: functional; settings: read-out: LC50 (the source's name)
[5] = test system: NCI-H226; assay: Cytotoxicity against human NCI-H226 cells; assay type: functional; settings: read-out: LC50 (the source's name)
[6] = test system: T47D; assay: Cytotoxicity against human T47D cells; assay type: functional; settings: read-out: LC50 (the source's name)
[7] = test system: A549; assay: Cytotoxicity against human A549 cells; assay type: functional; settings: read-out: LC50 (the source's name)
[8] = test system: OVCAR-4; assay: Cytotoxicity against human OVCAR4 cells; assay type: functional; settings: read-out: LC50 (the source's name)
[9] = test system: CCRF-CEM; assay: Cytotoxicity against human CCRF-CEM cells; assay type: functional; settings: read-out: LC50 (the source's name)
[10] = test system: TK-10; assay: Cytotoxicity against human TK10 cells; assay type: functional; settings: read-out: LC50 (the source's name)
[11] = test system: SK-MEL-5; assay: Cytotoxicity against human SK-MEL-5 cells; assay type: functional; settings: read-out: LC50 (the source's name)
[12] = test system: UACC-62; assay: Cytotoxicity against human UACC62 cells; assay type: functional; settings: read-out: LC50 (the source's name)
[13] = test system: NCI-H522; assay: Cytotoxicity against human NCI-H522 cells; assay type: functional; settings: read-out: LC50 (the source's name)
[14] = Toxicity in Artemia salina; assay type: organism-based; settings: in vivo
[15] = test system: U-251; assay: Cytotoxicity against human U251 cells; assay type: functional; settings: read-out: LC50 (the source's name)
[16] = test system: LOX IMVI; assay: Cytotoxicity against human LOXIMVI cells; assay type: functional; settings: read-out: LC50 (the source's name)
[17] = test system: HCT-116; assay: Cytotoxicity against human HCT116 cells; assay type: functional; settings: read-out: LC50 (the source's name)
[18] = test system: MDA-MB-435; assay: Cytotoxicity against human MDA-MB-435 cells; assay type: functional; settings: read-out: LC50 (the source's name)
[19] = test system: SK-MEL-28; assay: Cytotoxicity against human SK-MEL-28 cells; assay type: functional; settings: read-out: LC50 (the source's name)
[20] = test system: K562; assay: Cytotoxicity against human K562 cells; assay type: functional; settings: read-out: LC50 (the source's name)
[21] = Cytotoxicity against human Hs 578T cells; assay type: functional; settings: read-out: LC50 (the source's name)
[22] = test system: MDA-N; assay: Cytotoxicity against human MDA-N cells; assay type: functional; settings: read-out: LC50 (the source's name)
[23] = test system: BT-549; assay: Cytotoxicity against human BT549 cells; assay type: functional; settings: read-out: LC50 (the source's name)
[24] = test system: MOLT-4; assay: Cytotoxicity against human MOLT4 cells; assay type: functional; settings: read-out: LC50 (the source's name)
[25] = test system: A498; assay: Cytotoxicity against human A498 cells; assay type: functional; settings: read-out: LC50 (the source's name)
[26] = test system: SR; assay: Cytotoxicity against human SR cells; assay type: functional; settings: read-out: LC50 (the source's name)
[27] = test system: OVCAR-3; assay: Cytotoxicity against human OVCAR-3 cells; assay type: functional; settings: read-out: LC50 (the source's name)
[28] = test system: HOP-92; assay: Cytotoxicity against human HOP92 cells; assay type: functional; settings: read-out: LC50 (the source's name)
[29] = test system: HCC 2998; assay: Cytotoxicity against human HCC2998 cells; assay type: functional; settings: read-out: LC50 (the source's name)
[30] = test system: CAKI-1; assay: Cytotoxicity against human Caki1 cells; assay type: functional; settings: read-out: LC50 (the source's name)
[31] = test system: ACHN; assay: Cytotoxicity against human ACHN cells; assay type: functional; settings: read-out: LC50 (the source's name)
[32] = test system: HL-60(TB); assay: Cytotoxicity against human HL-60(TB) cells; assay type: functional; settings: read-out: LC50 (the source's name)
[33] = test system: COLO 205; assay: Cytotoxicity against human COLO205 cells; assay type: functional; settings: read-out: LC50 (the source's name)
[34] = test system: SF-268; assay: Cytotoxicity against human SF268 cells; assay type: functional; settings: read-out: LC50 (the source's name)
[35] = test system: PC-3; assay: Cytotoxicity against human PC3 cells; assay type: functional; settings: read-out: LC50 (the source's name)
[36] = test system: SK-OV-3; assay: Cytotoxicity against human SKOV3 cells; assay type: functional; settings: read-out: LC50 (the source's name)
[37] = test system: NCI-H322M; assay: Cytotoxicity against human NCI-H322M cells; assay type: functional; settings: read-out: LC50 (the source's name)
[38] = test system: OVCAR-5; assay: Cytotoxicity against human OVCAR5 cells; assay type: functional; settings: read-out: LC50 (the source's name)
[39] = test system: EKVX; assay: Cytotoxicity against human EKVX cells; assay type: functional; settings: read-out: LC50 (the source's name)
[40] = test system: IGROV-1; assay: Cytotoxicity against human IGROV1 cells; assay type: functional; settings: read-out: LC50 (the source's name)
[41] = test system: SW-620; assay: Cytotoxicity against human SW620 cells; assay type: functional; settings: read-out: LC50 (the source's name)
[42] = test system: NCI-H23; assay: Cytotoxicity against human NCI-H23 cells; assay type: functional; settings: read-out: LC50 (the source's name)
[43] = test system: SK-MEL-2; assay: Cytotoxicity against human SK-MEL-2 cells; assay type: functional; settings: read-out: LC50 (the source's name)
[44] = test system: Malme-3M; assay: Cytotoxicity against human MALME-3M cells; assay type: functional; settings: read-out: LC50 (the source's name)
[45] = test system: SNB-19; assay: Cytotoxicity against human SNB19 cells; assay type: functional; settings: read-out: LC50 (the source's name)
[46] = test system: SF-539; assay: Cytotoxicity against human SF539 cells; assay type: functional; settings: read-out: LC50 (the source's name)
[47] = test system: UO-31; assay: Cytotoxicity against human UO31 cells; assay type: functional; settings: read-out: LC50 (the source's name)
[48] = test system: OVCAR-8; assay: Cytotoxicity against human OVCAR8 cells; assay type: functional; settings: read-out: LC50 (the source's name)
[49] = Cytotoxicity against human MCF7/ADR cells; assay type: functional; settings: NCI/ADR-RES, read-out: LC50 (the source's name)
[50] = test system: 786-0; assay: Cytotoxicity against human 786-0 cells; assay type: functional; settings: read-out: LC50 (the source's name)
[51] = test system: KM12; assay: Cytotoxicity against human KM12 cells; assay type: functional; settings: read-out: LC50 (the source's name)
[52] = test system: MDA-MB-231; assay: Cytotoxicity against human MDA-MB-231 cells; assay type: functional; settings: read-out: LC50 (the source's name)
[53] = Cytotoxicity against human […] cells; assay type: functional; settings: read-out: LC50 (the source's name)
[54] = test system: DU-145; assay: Cytotoxicity against human DU145 cells; assay type: functional; settings: read-out: LC50 (the source's name)
[55] = test system: HCT-15; assay: Cytotoxicity against human HCT15 cells; assay type: functional; settings: read-out: LC50 (the source's name)
[56] = test system: NCI-H460; assay: Cytotoxicity against human NCI-H460 cells; assay type: functional; settings: read-out: LC50 (the source's name)
[57] = test system: MCF7; assay: Cytotoxicity against human MCF7 cells; assay type: functional; settings: read-out: LC50 (the source's name)
[58] = test system: HT-29; assay: Cytotoxicity against human HT-29 cells; assay type: functional; settings: read-out: LC50 (the source's name)
[59] = test system: RXF 393; assay: Cytotoxicity against human […] cells; assay type: functional; settings: read-out: LC50 (the source's name)
[60] = test system: SF-295; assay: Cytotoxicity against human SF295 cells; assay type: functional; settings: read-out: LC50 (the source's name)
[61] = test system: M14; assay: Cytotoxicity against human M14 cells; assay type: functional; settings: read-out: LC50 (the source's name)
[62] = as §1; assay type: organism-based; settings: in vivo
[63] = test system: UACC-257; assay: Cytotoxicity against human UACC257 cells; assay type: functional; settings: read-out: LC50 (the source's name)
[64] = test system: HOP-62; assay: Cytotoxicity against human HOP62 cells; assay type: functional; settings: read-out: LC50 (the source's name)

For CC1=C/[C@H](C)C[C@@]2(C)CC[C@@H](O2)[C@@]23CC[C@@](C)(C[C@@H](O2)[C@H]2O[C@](C)(CC2=O)[C@@H](O)[C@@H]2CC[C@@]4(CCC[C@H](O4)[C@@H](C)C(=O)O[C@@H]4C[C@@H]([C@@]5(O)OCC[C@@H](C)[C@H]5O)O[C@@H]4\C=C\1)O2)O3, the Activity [1] was “inactive” and the Activity [2] was “inactive”.

With COc1cccc2c1C(=O)c1c(O)c3c(c(O)c1C2=O)C[C@@](O)(C(=O)CO)C[C@@H]3O[C@H]1C[C@H](N)[C@H](O)[C@H](C)O1 [DOXORUBICIN] the LD50 [3] was 13 µg/mL.

Compound O=c1[nH]cc(F)c(=O)[nH]1 [FLUOROURACIL] has a CC50 [4] of 0.2 µg/mL (≈ 1.54 µM).

In the case of CC1=C\[C@H](C)C[C@@]2(C)CC[C@@H](O2)[C@@]23CC[C@@](C)(C[C@@H](O2)[C@H]2O[C@](C)(CC2=O)[C@@H](O)[C@@H]2CC[C@@]4(CCC[C@H](O4)[C@@H](C)C(=O)O[C@@H]4C[C@@H]([C@@]5(O)OCC[C@@H](C)[C@H]5O)O[C@@H]4\C=C\1)O2)O3 [PECTENOTOXIN II], the CC50 [5] is reported as > 10 µM, the CC50 [6] is reported as > 10 µM and the CC50 [7] is reported as > 10 µM. The CC50 [8] was > 10 µM, the CC50 [9] was > 10 µM and the CC50 [10] was 0.0725 µM. The CC50 [11] was 0.0552 µM, the CC50 [12] was > 10 µM and the CC50 [13] was > 10 µM. For the same compound, the LC50 [14] was < 0.1 µg/mL, the CC50 [15] was > 10 µM and the CC50 [16] was > 10 µM. For the same compound, the CC50 [17] was 0.0733 µM, the CC50 [18] was > 10 µM and the CC50 [19] was 0.0423 µM. For the same compound, the CC50 [20] was > 10 µM, the CC50 [21] was 0.0779 µM and the CC50 [22] was > 10 µM. The CC50 [23] was 0.0627 µM, the CC50 [24] was > 10 µM and the CC50 [25] was 0.0341 µM. For the same compound, the CC50 [26] was > 10 µM, the CC50 [27] was 0.0616 µM and the CC50 [28] was 0.807 µM. The CC50 [29] was > 10 µM, the CC50 [30] was 0.0191 µM and the CC50 [31] was > 10 µM. The CC50 [32] was > 10 µM, the CC50 [33] was 0.00782 µM and the CC50 [34] was 0.154 µM. For the same compound, the CC50 [35] was > 10 µM, the CC50 [36] was > 10 µM and the CC50 [37] was > 10 µM. For the same compound, the CC50 [38] was > 10 µM, the CC50 [39] was 0.062 µM and the CC50 [40] was 0.0673 µM. For the same compound, the CC50 [41] was > 10 µM, the CC50 [42] was > 10 µM and the CC50 [43] was > 10 µM. The CC50 [44] was 0.123 µM, the CC50 [45] was > 10 µM and the CC50 [46] was > 10 µM. The CC50 [47] was 0.0563 µM, the CC50 [48] was > 10 µM and the CC50 [49] was > 10 µM. For the same compound, the CC50 [50] was > 10 µM, the CC50 [51] was > 10 µM and the CC50 [52] was > 10 µM. The CC50 [53] was > 10 µM, the CC50 [54] was > 10 µM and the CC50 [55] was > 10 µM. The CC50 [56] was > 10 µM, the CC50 [57] was > 10 µM and the CC50 [58] was > 10 µM. It also gave a CC50 [59] of 0.03 µM, a CC50 [60] of 0.0777 µM and a CC50 [61] of 4.73 µM. The LD50 [62] was 0.26 mg/kg, the CC50 [63] was > 10 µM and the CC50 [64] was 0.0251 µM.

In the case of O=C(NCCSSCCNC(=O)/C(Cc1ccc(O)c(Br)c1)=N/O)/C(Cc1ccc(O)c(Br)c1)=N/O [PSAMMAPLIN A], the CC50 [7] is reported as 6.43 µg/mL, the LC50 [14] is reported as 4 µg/mL (≈ 6.02 µM) and the CC50 [4] is reported as 0.64 µg/mL (≈ 0.963 µM).
